Source: patent US20080064718A1, “INHIBITORS OF PROTEIN TYROSINE KINASE ACTIVITY” (priority 2006, published 2008)
pIC50: −log10 of the molar value.

Experiments:
[1] = biological target: T1, VEGF receptor KDR (Homo sapiens, UniProt P35968); assay: In vitro receptor tyrosine kinase assay, VEGF receptor KDR (DELFIA); type: biochemical; conditions: GST-VEGFR2 806-1356, ATP 0.6 uM; read-out: VEGFR IC50
T1 construct: made in house; host or cells: Sf9 cells (Spodoptera frugiperda), recombinant baculovirus
From the text: In the case of VEGF receptor KDR a 1.6-kb cDNA corresponding to the catalytic domain of VEGFR2 or KDR (Genbank accession number AF035121 amino acid 806 to 1356) is cloned into the Pst I site of the pDEST20 Gateway vector (Invitrogen) for the production of a GST-tagged version of that enzyme.
The GST-VEGFR2806-1356 protein is expressed in Sf9 cells (Spodoptera frugiperda) upon infection with recombinant baculovirus construct.
The supernatant is loaded onto a GST-agarose column (Sigma) equilibrated with PBS pH 7.3. Following a four column volume (CV) wash with PBS pH 7.3+1% Triton X-100 and 4 CV wash with buffer B (50 mM Tris pH 8.0, 20% glycerol and 100 mM NaCl), bound proteins are step eluted with 5 CV of buffer B supplemented with 5 mM DTT and 15 mM glutathion. […] Final GST-VEGFR2806-1356 protein preparations concentrations are about 0.7 mg/ml with purity approximating 70%.

[2] = biological target: recombinant human c-Met/HGF receptor (Homo sapiens, UniProt P08581); assay: In vitro receptor tyrosine kinase assay, c-Met/HGF receptor (DELFIA)
[3] = system: DU145; assay: DU145 scattering; type: cell-based; conditions: Homo sapiens, DU-145; DU145 cells; read-out: CMET DU145 SCATT HEAL- IC50 UM
[4] = system: A549; assay: A549 inhibition of wound healing; type: cell-based; conditions: Homo sapiens; A549 cells; read-out: A549 INHIB WND ING IC50 UM
[5] = biological target: T2, c-Met (Homo sapiens, UniProt P08581); assay: c-Met phosphorylation direct ELISA in MKN45 cells; type: cell-based; conditions: 3 h treatment
T2 construct: endogenous in cells; host or cells: MKN45 gastric carcinoma cells
Method: Alternatively, the following assay is used to determine inhibition of c-Met phosphorylation.
The c-Met receptor is expressed in numerous cancer cell lines derived from tumors of epithelial origin. In MKN45 gastric carcinoma cells the c-Met gene is amplified, resulting in several-fold overexpression of the receptor and its constitutive activation.
Cell treatments: MKN45 cells are seeded into wells of 96-well plates at a density of 3×10^4 cells/well in RPMI medium supplemented with 10% FBS. […] Inhibitors are added to the medium in triplicate wells at the indicated doses.
After an overnight protein binding incubation at 4° C., lysates are aspirated and wells are blocked for 1 h at 37° C. in TBST supplemented with 5% BSA. Plates are incubated with the primary antibodies anti-phospho-Tyrosine (Millipore, 4G10) diluted 1/15000 in TBST supplemented with 5% BSA for 1 h at room temperature. Plates are washed 3 times on a plate washer (SkanWasher, Molecular Devises), and incubated with the reporter antibody […] (Sigma) diluted 1/15000 in TBST supplemented with 5% BSA, for 1 h at room temperature. Plates are washed 3 times with TBST using on a plate washer and subsequently incubated with chemiluminescent substrate solution (ECL, Roche). Luminescence signal is captured on a Polar Star Optima apparatus (BMG LabTech).
Average values of the triplicate samples are used to prepare IC50 curves using a 4-parameter fit model. These curves are calculated using, for example, GraFit 5.0 software. For assay standardization purpose, an internal control is included on each experimental test plate.

Sequence of recombinant human c-Met/HGF receptor (P08581 1078-1337): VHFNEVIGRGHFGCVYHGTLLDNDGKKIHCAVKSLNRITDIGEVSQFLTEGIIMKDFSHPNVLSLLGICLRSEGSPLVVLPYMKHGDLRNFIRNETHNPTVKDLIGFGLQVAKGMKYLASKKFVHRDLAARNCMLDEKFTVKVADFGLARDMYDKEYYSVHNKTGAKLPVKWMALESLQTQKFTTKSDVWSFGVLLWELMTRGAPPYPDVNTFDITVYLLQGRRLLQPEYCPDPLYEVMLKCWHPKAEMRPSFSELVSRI
T2 sequence (P08581 25-1390): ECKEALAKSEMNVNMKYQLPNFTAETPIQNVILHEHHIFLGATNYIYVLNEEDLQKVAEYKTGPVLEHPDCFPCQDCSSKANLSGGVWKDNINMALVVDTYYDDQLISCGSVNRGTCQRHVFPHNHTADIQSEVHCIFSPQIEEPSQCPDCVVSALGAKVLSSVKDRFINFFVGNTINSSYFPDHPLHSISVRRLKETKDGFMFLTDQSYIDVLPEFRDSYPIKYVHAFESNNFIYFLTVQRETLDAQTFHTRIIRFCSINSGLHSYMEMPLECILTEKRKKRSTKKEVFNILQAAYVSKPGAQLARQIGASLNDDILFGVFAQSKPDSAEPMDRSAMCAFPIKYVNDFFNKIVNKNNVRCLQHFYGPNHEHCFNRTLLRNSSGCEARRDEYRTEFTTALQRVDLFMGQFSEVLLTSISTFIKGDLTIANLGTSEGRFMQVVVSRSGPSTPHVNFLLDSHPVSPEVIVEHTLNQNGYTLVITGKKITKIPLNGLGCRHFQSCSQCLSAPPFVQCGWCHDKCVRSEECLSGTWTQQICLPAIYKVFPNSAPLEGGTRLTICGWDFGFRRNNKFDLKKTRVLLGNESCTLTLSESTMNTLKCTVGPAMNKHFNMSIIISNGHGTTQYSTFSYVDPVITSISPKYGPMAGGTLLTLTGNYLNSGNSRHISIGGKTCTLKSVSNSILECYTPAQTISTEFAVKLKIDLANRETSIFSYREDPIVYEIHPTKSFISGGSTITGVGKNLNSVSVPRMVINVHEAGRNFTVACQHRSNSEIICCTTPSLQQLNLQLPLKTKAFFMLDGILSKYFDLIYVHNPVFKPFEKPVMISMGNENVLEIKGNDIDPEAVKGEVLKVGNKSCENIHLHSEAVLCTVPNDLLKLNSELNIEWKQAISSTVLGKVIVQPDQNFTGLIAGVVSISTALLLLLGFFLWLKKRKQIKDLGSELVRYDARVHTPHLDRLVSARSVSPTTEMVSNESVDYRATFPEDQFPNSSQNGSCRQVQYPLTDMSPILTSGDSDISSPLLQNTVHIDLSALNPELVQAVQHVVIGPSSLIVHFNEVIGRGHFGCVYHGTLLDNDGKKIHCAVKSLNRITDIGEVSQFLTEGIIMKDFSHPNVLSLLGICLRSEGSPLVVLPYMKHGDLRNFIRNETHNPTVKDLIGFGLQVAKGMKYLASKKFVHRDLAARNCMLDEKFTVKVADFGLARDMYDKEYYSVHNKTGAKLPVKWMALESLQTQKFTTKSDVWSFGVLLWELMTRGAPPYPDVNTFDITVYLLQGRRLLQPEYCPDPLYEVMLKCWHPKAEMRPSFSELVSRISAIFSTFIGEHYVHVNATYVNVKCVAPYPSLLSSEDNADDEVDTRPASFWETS
T1 sequence (P35968 806-1356): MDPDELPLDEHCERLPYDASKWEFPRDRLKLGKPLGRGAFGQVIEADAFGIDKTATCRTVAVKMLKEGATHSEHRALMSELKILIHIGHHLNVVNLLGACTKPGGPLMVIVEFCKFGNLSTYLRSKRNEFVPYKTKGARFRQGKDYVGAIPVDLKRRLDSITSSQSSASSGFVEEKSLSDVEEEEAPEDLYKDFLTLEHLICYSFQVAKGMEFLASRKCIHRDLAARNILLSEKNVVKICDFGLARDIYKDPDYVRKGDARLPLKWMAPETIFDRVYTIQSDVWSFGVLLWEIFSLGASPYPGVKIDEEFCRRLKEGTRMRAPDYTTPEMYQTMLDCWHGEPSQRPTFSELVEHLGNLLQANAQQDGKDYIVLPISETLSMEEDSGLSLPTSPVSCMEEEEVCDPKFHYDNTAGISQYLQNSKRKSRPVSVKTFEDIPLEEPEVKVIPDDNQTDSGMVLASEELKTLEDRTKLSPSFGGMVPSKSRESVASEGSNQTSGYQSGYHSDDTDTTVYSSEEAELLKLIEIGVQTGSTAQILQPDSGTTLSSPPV

| pIC50 [1] | pIC50 [2] | pIC50 [3] | pIC50 [4] | pIC50 [5] | SMILES |
| --- | --- | --- | --- | --- | --- |
| > 6.60 | > 6.60 | 6.30 to 6.60 | > 6.60 | > 6.60 | CN(C)C(=O)c1ccc(-c2cc3nccc(Oc4ccc(NC(=O)N5CCN(c6ccccc6)C5=O)cc4F)c3s2)cc1 |
| > 6.60 | > 6.60 | > 6.60 | > 6.60 | > 6.60 | CN(C)CC(=O)N1CC=C(c2cc3nccc(Oc4ccc(NC(=O)N5CCN(c6ccccc6)C5=O)cc4F)c3s2)CC1 |
